The values that follow come from patent US12528774B2, “Thiosemicarbazone compounds and uses thereof” (The Regents of the University of California, priority 2019, dated 2026).

Molecules are shown by their SMILES.

Experiment [1] deals with normal human epithelial cell line HPDE. Briefly: Proliferation assay in normal epithelial cell line HPDE. It counts as cell-based. How it is done: Serum copper levels are elevated (>20 μM) in individuals with solid tumor types such as pancreatic ductal adenocarcinoma (PDAC), small cell lung carcinoma (SCLC), and prostate cancer (PC). (Refs. 43-48). These cancers rely upon elevated copper levels to sustain growth, making this transition metal a viable target for therapeutic modulation. (Ref 34).
Proliferation assay: Cells were plated in 384-well plates (500 cells/well for adherent cell lines in 30 μl volume). Drugs were serially diluted to the desired concentrations and an equivalent volume of DMSO was added to vehicle control. Following 72 h incubation, ATP content was measured using CellTiter-Glo reagent according to manufacturer's instructions (Promega, CellTiter-Glo Luminescent Cell Viability Assay), and analyzed by SpectraMax luminometer (Molecular Devices). IC50 and IC90 values, concentrations required to inhibit proliferation by 50% and 90% respectively compared to DMSO treated cells, were calculated using Prism 6.0 h (Graphpad Software).

A further experiment concerns 143 BTK ρ0 cells. Briefly: Viability (trypan blue) and cell cycle in 143 BTK ρ0 cells. It counts as cell-based. The conditions noted are these: HCT13 + 20 μM Cu(II), 48 hours. Here is the method:
FIG. 3A: Mito Stress Test of MIAPACA2 PDAC cells treated with HCT13 (25 nM)+Cu(II) (20 μM) for 24h. FIG. 3B: electron flow assay in isolated mitochondria treated with HCT-13 (100 nM)+Cu(II) (20 μM) for 1h. FIG. 3C: viability of 143 BTK parental (wild type, WT) and ρ0 cells after 48h of the indicated HCT13 concentration+Cu(II) (20 μM) treatment, assessed with Trypan Blue Staining. FIG. 3D: 48h cell cycle histogram and plots of S-phase arrest plots in 143 BTK WT and 143 BTK ρ0 cells at 24, 48 and 72h following treatment with indicated concentrations of HCT13+Cu(II)(20 μM). (mean±SD, n=2, one-way ANOVA corrected for multiple comparisons by Bonferroni adjustment, * P<0.05; ** P<0.01; *** P<0.001).
Another HCT compound, Dp44mT, was reported to increase AMPK expression and induce ROS, although its cytotoxicity was not attributed to the functionality of the mitochondria. (Ref 50). […] Both 143 BTK ρ0 and parental (wild type, WT) cells were treated with HCT13+20 μM Cu(II) for 48 hours, after which cell viability was determined through trypan blue staining (FIG. 3C).
Viability/Apoptosis assay: Viable cells were measured by Trypan blue staining using vi-cell counter (Beckman Coulter, CA, USA). […]
Cell cycle: Cell cycle was assessed using Propidium iodide staining at indicated timepoints. […]

The test system of the next experiment is MIAPACA-2 cells. Briefly: Nucleotide pool measurement by LC-MS/MS-MRM. The settings on record: 25 nM HCT-13 + Cu(II), 48 hours. It counts as cell-based, human. How it is done: FIGS. 4A-4G show the chemical genomics screen identifying the replication stress response pathway as an actionable co-dependency of HCT13-treated cells. FIG. 4A: experimental design of a synthetic lethality screen using a library of protein kinase inhibitors against HCT13-treated cells in the presence of Cu(II) (20 μM). FIG. 4B: radar plot of screen results. FIG. 4C: z-score values for kinase inhibitors within the DNA damage response/replication stress response (DDR/RSR) pathway module. FIG. 4D: representative immunoblot of replication stress and cell death biomarkers in MIAPACA2 PDAC cells treated with HCT13 (10 nM)+Cu(II) (20 μM). […]
These observations are indicative of DDR/RSR pathway activation, which was hypothesized to arise from nucleotide insufficiency and/or, given the ability of copper to generate ROS, from ROS-mediated DNA damage. […] To test the former hypothesis, nucleotide levels were measured in treated and non-treated cells using liquid chromatography-tandem mass spectrometry with multiple reaction monitoring (LC-MS/MS-MRM) as previously described by Le et al, Nature Communications 2017, 8(1):1-14. […] These findings indicate that HCT-13 preferentially decreases the dGTP and rGTP pools, potentially via oxidative processes as guanine is the most readily oxidized nucleobase. […]

As for `CN(C)C(=S)N/N=C/c1nccc2cc(F)ccc12` (mixture of isomers) [HCT13, (E)-2-((6-Fluoroisoquinolin-1-yl)methylene)-N,N-dimethylhydrazine-1-carbothioamide and (Z)-2-((6-Fluoroisoquinolin-1-yl)methylene)-N,N-dimethylhydrazine-1-carbothioamide], the “sensitivity of normal cells versus cancer models” value in experiment [1] is on record as “markedly more resistant”. Further, the “sensitivity of ρ0 cells compared to WT (viability)” value with 143 BTK ρ0 cells is listed as “significantly less sensitive”. Besides, the “dGTP and rGTP pools” value in the experiment with MIAPACA-2 cells was “decreased”.
